Measurements from patent US9504685B2, “Method for treating a pulmonary hypertension condition” (Gilead Sciences, Inc., priority 2006, dated 2016).

System: subjects with PAH
Test: Example 1 (ARIES-2) placebo-controlled Phase III trial, efficacy
Assay type: in vivo, human
Conditions: for Change in 6MWD from baseline to Week 12, mean / Week 12 6MWD, mean: ITT population; for geometric mean percent change in plasma ET-1, increase from baseline / geometric mean plasma BNP, decrease from baseline / mean BDI change from baseline: Week 12
Method: The primary objective of this study was to determine the effect of ambrisentan on exercise capacity in subjects with PAH. The secondary objectives of this study were to evaluate effects of ambrisentan on other clinical measures of PAH, as well as safety and tolerability of the study drug.
Study drug was provided in round, biconvex, oral tablets that were identical in appearance. Three strengths of active study drug, containing 1 mg, 2.5 mg or 5 mg of ambrisentan, were used in this study. All study drug was packaged in blister cards. Subjects were instructed to take study drug once daily (q.d.) by mouth (p.o.) in the morning, with or without food.
The maximum study duration was up to 14 weeks from the time of initial screening procedures to the final study visit (Week 12). Screening procedures were performed a maximum of 2 weeks prior to the first dose of study drug. The maximum duration of study drug treatment was 12 weeks.
Men and women, 18 years of age or older, with idiopathic PAH, PAH associated with connective tissue disease (CTD), e.g., mixed CTD, CREST syndrome, systemic sclerosis (scleroderma), overlap syndrome or systemic lupus erythematosus, or PAH associated with anorexigen use or HIV infection were enrolled in this study. Subjects were to have a documented mean PAP≧25 mmHg, PVR>3 mmHg/L/min, and PCWP or LVEDP<15 mmHg. Subjects must have been able to walk a distance of at least 150 m but no more than 450 m during 2 consecutive 6MWTs to be eligible for inclusion in the study.
After a 2 week screening period, eligible subjects were stratified based on the underlying etiology of PAH (idiopathic or non-idiopathic) and were randomized to 1 of 3 treatment groups (placebo, 2.5 mg or 5 mg ambrisentan) in a ratio of 1:1:1. One blinded dose reduction was permitted during the 12-week treatment period in the event of study drug intolerance (e.g., 5 mg to 2.5 mg, 2.5 mg to 1 mg, placebo to placebo). Subjects received a daily dose of 1 mg ambrisentan only if they reduced from the 2.5 mg dose group. Subjects were assessed for efficacy and safety at monthly intervals.
Therefore, after a minimum treatment period of 4 weeks, subjects who met 2 or more of the following predefined early escape criteria may have been removed from the study: • (a) a decrease from baseline of at least 20% in 6MWD; • (b) an increase of 1 or more WHO functional class; • (c) worsening right ventricular failure (e.g., as indicated by increased jugular venous pressure, new or worsening hepatomegaly, ascites or peripheral edema); • (d) rapidly progressing cardiogenic, hepatic or renal failure; and/or • (e) refractory systolic hypotension (systolic blood pressure <85 mmHg).
The primary efficacy endpoint was change from baseline in 6MWD evaluated after 12 weeks of treatment compared to placebo.
The secondary efficacy endpoints included: • (a) time to clinical worsening of PAH, as defined by the time from randomization to the first occurrence of death, lung transplantation, hospitalization for PAH, atrial septostomy, study discontinuation due to addition of other PAH therapeutic agents, or study discontinuation due to 2 or more early escape criteria; • (b) change from baseline measured after 12 weeks of treatment compared to placebo in: • (i) WHO functional class; • (ii) SF-36® health survey physical functioning scale; • (iii) BDI immediately following exercise; and/or • (iv) an assessment of the safety and tolerability of the study drug; and • (c) change from baseline measured after 12 weeks of treatment compared to placebo in plasma levels of ET-1, cTnT and BNP. Safety Assessments
For the ITT population, subjects were considered as belonging to their randomized treatment group, regardless of the actual treatment received.
The primary efficacy endpoint was the change from baseline in 6MWD evaluated after 12 weeks of treatment compared to placebo, where the last observation was carried forward. […]

[1] = 2.5 mg once daily, baseline to Week 12
[2] = 5 mg once daily, baseline to Week 12

## COC(c1ccccc1)(c1ccccc1)[C@H](Oc1nc(C)cc(C)n1)C(=O)O [ambrisentan]
2.5 mg once daily
  placebo-adjusted improvement in mean 6MWD at Week 12: +32.3 m
  subjects at least maintaining their baseline WHO functional class at Week 12: 95.3%
  Change in 6MWD from baseline to Week 12, mean: +22.2 meters
  Week 12 6MWD, mean: 369.6 meters
  geometric mean percent change in plasma ET-1, increase from baseline: 19%
  geometric mean plasma BNP, decrease from baseline: 29%
  mean BDI change from baseline: −0.20
2.5 mg once daily, 12 weeks
  Clinical worsening event: Atrial septostomy: 0 (0.0) subjects (% of ITT population)
  Clinical worsening event: Death: 2 (3.1) subjects (% of ITT population)
  Clinical worsening event: Escape criteria: 2 (3.1) subjects (% of ITT population)
  Clinical worsening event: Hospitalization for PAH: 3 (4.7) subjects (% of ITT population)
  Clinical worsening event: Lung transplantation: 0 (0.0) subjects (% of ITT population)
  Clinical worsening event: Study withdrawal due to addition of PAH treatment: 0 (0.0) subjects (% of ITT population)
  Clinical worsening: Total subjects with ≧1 event: 3 (4.7) subjects (% of ITT population)
  subjects who experienced an event of clinical worsening: 4.7%
[1]
  Change in SF-36 Bodily pain, mean (SD): +2.34 (11.87)
  Change in SF-36 General health, mean (SD): +3.84 (6.71)
  Change in SF-36 Mental component summary, mean (SD): +4.05 (10.30)
  Change in SF-36 Mental health, mean (SD): +4.98 (9.70)
  Change in SF-36 Physical component summary, mean (SD): +3.78 (7.63)
  Change in SF-36 Physical functioning, mean (SD): +3.86 (7.14)
  Change in SF-36 Role-emotional, mean (SD): +3.11 (12.90)
  Change in SF-36 Role-physical, mean (SD): +5.87 (11.72)
  Change in SF-36 Social functioning, mean (SD): +4.55 (9.72)
  Change in SF-36 Vitality, mean (SD): +4.07 (9.12)
  Change in WHO functional class: +1 class: 2 (3.1) subjects (% of ITT population)
  Change in WHO functional class: +2 classes: 1 (1.6) subjects (% of ITT population)
  Change in WHO functional class: no change: 51 (79.7) subjects (% of ITT population)
  Change in WHO functional class: −1 class: 10 (15.6) subjects (% of ITT population)
  Change in WHO functional class: −2 classes: 0 (0.0) subjects (% of ITT population)
5 mg once daily
  placebo-adjusted improvement in mean 6MWD at Week 12: +59.4 m
  subjects at least maintaining their baseline WHO functional class at Week 12: 96.8%
  Change in 6MWD from baseline to Week 12, mean: +49.4 meters
  Week 12 6MWD, mean: 404.7 meters
  geometric mean percent change in plasma ET-1, increase from baseline: 72%
  geometric mean plasma BNP, decrease from baseline: 30%
  mean BDI change from baseline: −0.36
5 mg once daily, 12 weeks
  Clinical worsening event: Atrial septostomy: 0 (0.0) subjects (% of ITT population)
  Clinical worsening event: Death: 0 (0.0) subjects (% of ITT population)
  Clinical worsening event: Escape criteria: 1 (1.6) subjects (% of ITT population)
  Clinical worsening event: Hospitalization for PAH: 2 (3.2) subjects (% of ITT population)
  Clinical worsening event: Lung transplantation: 0 (0.0) subjects (% of ITT population)
  Clinical worsening event: Study withdrawal due to addition of PAH treatment: 0 (0.0) subjects (% of ITT population)
  Clinical worsening: Total subjects with ≧1 event: 3 (4.8) subjects (% of ITT population)
  subjects hospitalized for worsening right heart failure: 1 subjects
  subjects who experienced an event of clinical worsening: 4.8%
[2]
  Change in SF-36 Bodily pain, mean (SD): +0.46 (9.99)
  Change in SF-36 General health, mean (SD): +4.95 (8.05)
  Change in SF-36 Mental component summary, mean (SD): +6.28 (11.64)
  Change in SF-36 Mental health, mean (SD): +4.03 (10.13)
  Change in SF-36 Physical component summary, mean (SD): +2.97 (7.79)
  Change in SF-36 Physical functioning, mean (SD): +2.96 (6.81)
  Change in SF-36 Role-emotional, mean (SD): +8.15 (14.43)
